Results reported in patent US10314843B2, “Combinations for the treatment of neoplasms using quiescent cell targeting and inhibitors of mitosis” (Felicitex Therapeutics, Inc., priority 2016, dated 2019).

What was measured:
SW620 cells [1] = assay: FACS cell cycle distribution (Acridine Orange), SW620 cells; type: cell-based; settings: combination of Compound I-7 (4 μM) with paclitaxel (2 nM), FBS+ media, 24 hours
Excerpt: (§1) The following cell lines were obtained from ATCC and cultured according to the ATCC recommendations: DMS273—small cell lung cancer cell line; H1975—non-small cell lung cancer cell line harboring L858R and T790M mutations in EGFR TK; A549—a non-small cell lung cancer cell line with wild type EGFR; LNCap—prostate cancer cell line; SW620—colon cancer cell line; MiaPaCa2—pancreatic cancer cell line; PANC1—pancreatic cancer cell line; OVCAR3—ovarian cancer cell line; SK-OV-3—ovarian cancer cell line.
(§2) Cell cultures were seeded into 6-well plates at 3×10^5-6×10^5 cells/well; the plated number of cells depended on cell size and rate of proliferation, aiming for approximately 50% confluency. After seeding, the cells were allowed to attach for 24 hours while incubated at 37° C. in a humidified 5% CO2 atmosphere, and then treated with compounds for desired amount of time (usually 24 hours) incubating under same conditions. Then the cells were harvested by trypsinization, pooled with the floating cells, washed in PBS, and fixed in 70% ice-cold ethanol overnight. For Acridine Orange (AO) staining, fixed cells were washed once with ice-cold PBS, re-suspended in 100 μL PBS, followed by addition of 200 μL of permeabilizing solution and 600 μL AO staining solution. The measurements were performed with Guava easyCyte HT flow cytometer (EMD Millipore) using the blue laser for excitation at 488 nm, monitoring emission of the AO-DNA complex at 526 nm and AO-RNA complex at 650 nm. The complete protocol and composition of buffers are described in the literature (Darzynkiewicz Z, Juan G, and Srour E F (2004) Differential Staining of DNA and RNA (2004). Current Protocols in Cytometry, Chapter 7:Unit 7.3).

SW620 cells [2] = assay: FACS cell cycle distribution by DNA content (propidium iodide), SW620 cells in FBS- media; type: cell-based; settings: 24 hours in FBS- media, AZ191 2.5, 5, 10 μM, Compound I-7 1.25, 2.5, 5 μM
Protocol: as §2, with “[…] […]” for “For Acridine Orange (AO) staining, fixed cells were washed once with ice-cold PBS, re-suspended in 100 μL PBS, followed by addition of 200 μL of permeabilizing solution and 600 μL AO staining solution. The measurements were performed with Guava easyCyte HT flow cytometer (EMD Millipore) using the blue laser for excitation at 488 nm, monitoring emission of the AO-DNA complex at 526 nm and AO-RNA complex at 650 nm.”
The SW620 cells were cultured and treated as described in Example 1. For propidium iodide (PI) staining, manufacturer's protocol supplied with the Guava Cell Cycle Reagent for Flow Cytometry (EMD Millipore) was followed. The measurements were performed with Guava PCA-96 flow cytometer (EMD Millipore) using the green laser for excitation at 535 nm and monitoring emission at 617 nm.
The SW620 cells were cultured, treated, and analyzed as described in Examples 1. […]

DMS273 cells = assay: FACS cell cycle distribution (Acridine Orange), DMS273 cells; type: cell-based; settings: FBS+ media, 24 hours
Excerpt: as §1, §2

quiescent cancer cells = settings: in vitro; reported by Ewton et al. 2011; cited from earlier work
[3] = combination of Compound I-7 (4 μM) with vincristine (1.1 nM)
[4] = combination of Compound I-7 (4 μM) with vinorelbine (8.1 nM)
[5] = combination of Compound I-7 with paclitaxel

## CCOC(=N)c1nc2ccc3ncnc(Nc4cc(F)c(F)cc4Cl)c3c2s1 [Compound I-7]
SW620 cells [1]
  cytotoxicity (fraction of apoptotic cells, sub-G0 population): significantly higher than that of paclitaxel alone
  fraction of cells in G0: significant reduction of the fraction of cells in G0
SW620 cells [2]
  fraction of cells in quiescent state (G0), based on fraction of cells in G0+G1 phase: significant decrease in fraction of cells in quiescent state (G0)
DMS273 cells; [3]
  cytotoxicity (fraction of apoptotic cells, sub-G0 population): significantly higher than that of vincristine alone
  fraction of cells in G0: significant reduction of the fraction of cells in G0
DMS273 cells; [4]
  cytotoxicity (fraction of apoptotic cells, sub-G0 population): significantly higher than that of vinorelbine alone
  fraction of cells in G0: significant reduction of the fraction of cells in G0
DMS273 cells; [5]
  cytotoxicity (fraction of apoptotic cells, sub-G0 population): significantly higher than that of paclitaxel alone
  fraction of cells in G0: significant reduction of the fraction of cells in G0

## COc1ncc2cc(C(=O)Nc3cc(C(=O)NCc4cccc(Cl)c4)ccc3Cl)c(=O)[nH]c2n1 [TC-S 7004]
Quiescent cancer cells
  effectiveness against quiescent cancer cells: effective against quiescent cancer cells in vitro
